Measurements from patent publication US6737383B1, “Herbicidal oxadiazolidines” (priority 1999, dated 2004).

Tests used:
corn = experiment: Test B pre/postemergence corn; format: in vivo, Zea mays
Procedure, shortened: (§1)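 Herbicidal effect was estimated by eye on a ten-point control scale after plants spent twelve to sixteen days in a greenhouse following soil or foliar treatment. Foliar sprays targeted plants at one to four leaves; all doses were formulated in a non-phytotoxic solvent with surfactant.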

crabgrass = experiment: Test B pre/postemergence crabgrass; format: in vivo, Digitaria sanguinalis
Procedure, shortened: as §1

sugar beet = experiment: Test B pre/postemergence sugar beet; format: in vivo, Beta vulgaris
Procedure, shortened: as §1

rape = experiment: Test B pre/postemergence rape; format: in vivo, Brassica napus
Procedure, shortened: as §1

rice = experiment: Test B flood test rice; format: in vivo, Oryza sativa
Procedure, shortened: (§2)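 Each value is a visual injury score relative to controls, with 10 meaning complete control and 0 no effect. Evaluation took place twelve to sixteen days after the 2-leaf-stage plants were treated and kept in the greenhouse.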

giant foxtail = experiment: Test B pre/postemergence giant foxtail; format: in vivo, Setaria faberii
Procedure, shortened: as §1

smallflower flatsedge = experiment: Test B flood test smallflower flatsedge; format: in vivo, Cyperus difformis
Procedure, shortened: as §2

cocklebur = experiment: Test B pre/postemergence cocklebur; format: in vivo, Xanthium strumarium
Procedure, shortened: as §1

blackgrass = experiment: Test B pre/postemergence blackgrass; format: in vivo, Alopecurus myosuroides
Procedure, shortened: as §1

duck salad = experiment: Test B flood test duck salad; format: in vivo, Heteranthera limosa
Procedure, shortened: as §2

soybean = experiment: Test B pre/postemergence soybean; format: in vivo, Glycine max
Procedure, shortened: as §1

purple nutsedge = experiment: Test B pre/postemergence purple nutsedge; format: in vivo, Cyperus rotundus
Procedure, shortened: as §1

morningglory = experiment: Test B pre/postemergence morningglory; format: in vivo, Ipomoea hederacea
Procedure, shortened: as §1

pigweed = experiment: Test B pre/postemergence pigweed; format: in vivo, Amaranthus retroflexus
Procedure, shortened: as §1

velvetleaf = experiment: Test B pre/postemergence velvetleaf; format: in vivo, Abutilon theophrasti
Procedure, shortened: as §1

wheat = experiment: Test B pre/postemergence wheat; format: in vivo, Triticum aestivum
Procedure, shortened: as §1

[1] = Postemergence, Rate 125 g/ha, scale of 0 to 10 where 0 is no effect and 10 is complete control
[2] = Preemergence, Rate 62 g/ha, scale 0 to 10 (0 no effect, 10 complete control)
[3] = Preemergence, Rate 125 g/ha, 0 is no effect, 10 is complete control
[4] = Preemergence, Rate 250 g/ha, scale 0 to 10, 0 is no effect, 10 is complete control
[5] = Preemergence, Rate 500 g/ha, scale 0 to 10 (0 no effect, 10 complete control)
[6] = Rate 62 g/ha, Postemergence, scale of 0 to 10 where 0 is no effect and 10 is complete control
[7] = Rate 250 g/ha, Postemergence, scale 0 to 10, 0 is no effect, 10 is complete control
[8] = Rate 500 g/ha, Postemergence, scale 0 to 10, 0 no effect, 10 complete control
[9] = Postemergence (flood test species), Rate 125 g/ha, scale of 0 to 10 where 0 is no effect and 10 is complete control
[10] = Rate 62 g/ha, Postemergence section, flood test species, scale of 0 to 10 where 0 is no effect and 10 is complete control
[11] = Rate 250 g/ha, Postemergence (flood test), scale 0 to 10, 0 is no effect, 10 is complete control
[12] = Rate 250 g/ha, headed Pre-emergence (flood test species), scale 0 to 10 (0 no effect, 10 complete control)
[13] = Rate 500 g/ha, headed Pre-emergence (flood test species), scale 0 to 10 (0 no effect, 10 complete control)
[14] = Rate 500 g/ha, listed under Postemergence (flood test species), scale 0 to 10, 0 no effect, 10 complete control
[15] = Rate 1000 g/ha, Pre-emergence (as headed), scale 0 to 10
[16] = Rate 2000 g/ha, Pre-emergence (as headed), scale 0 to 10

Structure (SMILES): CC(C)N(C(=O)n1oc(=O)n(-c2cnn(C)c2)c1=O)c1ccccc1 [Compound 123]
- Corn plant response rating (corn; [1]): 0
- Corn plant response rating (corn; [2]): 0
- Corn plant response rating (0 to 10 scale) (corn; [3]): 0
- Corn plant response rating (corn; [4]): 0
- Corn plant response rating (corn; [5]): 0
- Corn plant response rating (corn; [6]): 0
- Plant response rating, Corn (corn; [7]): 0
- Corn plant response rating (corn; [8]): 0
- Crabgrass plant response rating (crabgrass; [1]): 4
- Crabgrass plant response rating (crabgrass; [2]): 4
- Crabgrass plant response rating (0 to 10 scale) (crabgrass; [3]): 5
- Crabgrass plant response rating (crabgrass; [4]): 5
- Crabgrass plant response rating (crabgrass; [5]): 7
- Crabgrass plant response rating (crabgrass; [6]): 0
- Plant response rating, Crabgrass (crabgrass; [7]): 8
- Crabgrass plant response rating (crabgrass; [8]): 9
- Sugarbeets plant response rating (sugar beet; [1]): 0
- Sugarbeets plant response rating (sugar beet; [2]): 0
- Sugarbeets plant response rating (0 to 10 scale) (sugar beet; [3]): 3
- Sugarbeets plant response rating (sugar beet; [4]): 5
- Sugarbeets plant response rating (sugar beet; [5]): 7
- Sugarbeets plant response rating (sugar beet; [6]): 0
- Plant response rating, Sugarbeets (sugar beet; [7]): 1
- Sugarbeets plant response rating (sugar beet; [8]): 2
- Rape plant response rating (rape; [1]): 0
- Rape plant response rating (rape; [2]): 0
- Rape plant response rating (0 to 10 scale) (rape; [3]): 0
- Rape plant response rating (rape; [4]): 0
- Rape plant response rating (rape; [5]): 0
- Rape plant response rating (rape; [6]): 0
- Plant response rating, Rape (rape; [7]): 0
- Rape plant response rating (rape; [8]): 2
- Rice plant response rating (rice; [9]): 0
- Rice plant response rating (rice; [10]): 0
- Plant response rating, Rice (rice; [11]): 0
- Rice plant response rating (rice; [12]): 0
- Plant response rating, Rice (rice; [13]): 0
- Rice plant response rating (rice; [14]): 0
- Rice plant response rating (rice; [15]): 0
- Rice plant response rating (rice; [16]): 0
- Giant foxtail plant response rating (giant foxtail; [1]): 5
- Giant foxtail plant response rating (giant foxtail; [2]): 7
- Giant foxtail plant response rating (0 to 10 scale) (giant foxtail; [3]): 9
- Giant foxtail plant response rating (giant foxtail; [4]): 9
- Giant foxtail plant response rating (giant foxtail; [5]): 10
- Giant foxtail plant response rating (giant foxtail; [6]): 3
- Plant response rating, Giant foxtail (giant foxtail; [7]): 8
- Giant foxtail plant response rating (giant foxtail; [8]): 9
- S. Flatsedge plant response rating (smallflower flatsedge; [9]): 0
- S. Flatsedge plant response rating (smallflower flatsedge; Pre-emergence, Rate 1000 g/ha, scale 0 to 10 (0 no effect, 10 complete control)): 0
- S. Flatsedge plant response rating (smallflower flatsedge; [10]): 0
- Plant response rating, S. Flatsedge (smallflower flatsedge; [11]): 0
- S. Flatsedge plant response rating (smallflower flatsedge; [12]): 0
- Plant response rating, S. Flatsedge (smallflower flatsedge; [13]): 0
- S. Flatsedge plant response rating (smallflower flatsedge; [14]): 0
- S. Flatsedge plant response rating (smallflower flatsedge; [16]): 0
- Cocklebur plant response rating (cocklebur; [1]): 0
- Cocklebur plant response rating (cocklebur; [2]): 0
- Cocklebur plant response rating (0 to 10 scale) (cocklebur; [3]): 0
- Cocklebur plant response rating (cocklebur; [4]): 0
- Cocklebur plant response rating (cocklebur; [5]): 0
- Cocklebur plant response rating (cocklebur; [6]): 0
- Plant response rating, Cocklebur (cocklebur; [7]): 0
- Cocklebur plant response rating (cocklebur; [8]): 1
- Blackgrass plant response rating (blackgrass; [1]): 6
- Blackgrass plant response rating (blackgrass; [2]): 0
- Blackgrass plant response rating (0 to 10 scale) (blackgrass; [3]): 0
- Blackgrass plant response rating (blackgrass; [4]): 4
- Blackgrass plant response rating (blackgrass; [5]): 7
- Blackgrass plant response rating (blackgrass; [6]): 2
- Plant response rating, Blackgrass (blackgrass; [7]): 6
- Blackgrass plant response rating (blackgrass; [8]): 7
- Ducksalad plant response rating (duck salad; [9]): 0
- Ducksalad plant response rating (duck salad; [10]): 0
- Plant response rating, Ducksalad (duck salad; [11]): 0
- Ducksalad plant response rating (duck salad; [12]): 0
- Plant response rating, Ducksalad (duck salad; [13]): 0
- Ducksalad plant response rating (duck salad; [14]): 0
- Ducksalad plant response rating (duck salad; [15]): 0
- Ducksalad plant response rating (duck salad; [16]): 0
- Soybean plant response rating (soybean; [1]): 4
- Soybean plant response rating (soybean; [2]): 0
- Soybean plant response rating (0 to 10 scale) (soybean; [3]): 0
- Soybean plant response rating (soybean; [4]): 0
- Soybean plant response rating (soybean; [5]): 0
- Soybean plant response rating (soybean; [6]): 2
- Plant response rating, Soybean (soybean; [7]): 4
- Soybean plant response rating (soybean; [8]): 4
- Nutsedge plant response rating (purple nutsedge; [1]): 0
- Nutsedge plant response rating (purple nutsedge; [2]): 0
- Nutsedge plant response rating (0 to 10 scale) (purple nutsedge; [3]): 0
- Nutsedge plant response rating (purple nutsedge; [4]): 0
- Nutsedge plant response rating (purple nutsedge; [5]): 0
- Nutsedge plant response rating (purple nutsedge; [6]): 0
- Plant response rating, Nutsedge (purple nutsedge; [7]): 0
- Nutsedge plant response rating (purple nutsedge; [8]): 0
- Morningglory plant response rating (morningglory; [1]): 9
- Morningglory plant response rating (morningglory; [2]): 0
- Morningglory plant response rating (0 to 10 scale) (morningglory; [3]): 0
- Morningglory plant response rating (morningglory; [4]): 0
- Morningglory plant response rating (morningglory; [5]): 0
- Morningglory plant response rating (morningglory; [6]): 8
- Plant response rating, Morningglory (morningglory; [7]): 10
- Morningglory plant response rating (morningglory; [8]): 10
- Redroot pigweed plant response rating (pigweed; [2]): 0
- Redroot pigweed plant response rating (0 to 10 scale) (pigweed; [3]): 4
- Redroot pigweed plant response rating (pigweed; [4]): 5
- Redroot pigweed plant response rating (pigweed; [5]): 9
- Redroot pigweed plant response rating (pigweed; [6]): 0
- Plant response rating, Redroot pigweed (pigweed; [7]): 2
- Redroot pigweed plant response rating (pigweed; [8]): 2
- Velvetleaf plant response rating (velvetleaf; [1]): 0
- Velvetleaf plant response rating (velvetleaf; [2]): 0
- Velvetleaf plant response rating (0 to 10 scale) (velvetleaf; [3]): 0
- Velvetleaf plant response rating (velvetleaf; [4]): 3
- Velvetleaf plant response rating (velvetleaf; [5]): 6
- Velvetleaf plant response rating (velvetleaf; [6]): 0
- Plant response rating, Velvetleaf (velvetleaf; [7]): 0
- Wheat plant response rating (wheat; [1]): 1
- Wheat plant response rating (wheat; [2]): 0
- Wheat plant response rating (0 to 10 scale) (wheat; [3]): 0
- Wheat plant response rating (wheat; [4]): 5
- Wheat plant response rating (wheat; [5]): 7
- Wheat plant response rating (wheat; [6]): 0
- Plant response rating, Wheat (wheat; [7]): 1
- Wheat plant response rating (wheat; [8]): 4
